Assay results as given in US6517742B1, “Sunscreen agents, photoprotective cosmetic compositions containing them and uses thereof” (L'Oreal, priority 1996, dated 2003).

Assay: UV absorption spectrum in ethanol (λmax, εmax)
Assay type: physicochemical
Parameters: UV εmax: unit not given beside the values
Conditions: for UV εmax: at λmax

Compound	UV λmax (Ethanol) [nm]	UV εmax (Ethanol)	UV λmax (95% Ethanol) [nm]	UV εmax (95% Ethanol)
CC(C)COC(=O)C(=Cc1ccc(Nc2nc(NCCC[Si](C)(O[Si](C)(C)C)O[Si](C)(C)C)nc(Nc3ccc(C=C(C(=O)OCC(C)C)C(=O)OCC(C)C)cc3)n2)cc1)C(=O)OCC(C)C [Example 5, 2,4-bis(diisobutyl 4′-ylaminobenzalmalonate)-6-{[1,1,1,3-tetramethyl-1-[(trimethylsilyl)oxy]disiloxanyl]propyl-3-ylamino}-s-triazine]	356.5	65,650		
Cc1cc(Nc2nc(NCCC[Si](C)(O[Si](C)(C)C)O[Si](C)(C)C)nc(NCCC[Si](C)(O[Si](C)(C)C)O[Si](C)(C)C)n2)c(O)c(-n2nc3ccccc3n2)c1 [Example 4, 2-(2-benzotriazol-2-yl-4-methyl-6-ylaminophenol)-4,6-bis{[1,3,3,3-tetramethyl-1-[(trimethylsilyl)oxy]disiloxanyl]propyl-3-ylamino}-s-triazine]	324	22,000		
2-(butyl 4′-ylaminobenzoate)-4,6-bis{[1,3,3,3-tetramethyl-1-[(trimethylsilyl)oxy]disiloxanyl]propyl-3-ylamino}-s-triazine [Example 1]	300	40,800		
CCCCOC(=O)c1ccc(Nc2nc(NCCC[Si](C)(O[Si](C)(C)C)O[Si](C)(C)C)nc(Nc3ccc(C(=O)OCCCC)cc3)n2)cc1 [Example 3, 2,4-bis(butyl 4′-ylaminobenzoate)-6-{[1,3,3,3-tetramethyl-1-[(trimethylsilyl)oxy]disiloxanyl]propyl-3-ylamino}-s-triazine]			310	75,510
CC12CCC(C(=Cc3ccc(Nc4nc(NCCC[Si](C)(O[Si](C)(C)C)O[Si](C)(C)C)nc(Nc5ccc(C=C6C(=O)C7(C)CCC6C7(C)C)cc5)n4)cc3)C1=O)C2(C)C [Example 2, 2,4-bis(4′-ylamnobenzylidenecamphor)-6-{[1,3,3,3-tetramethyl-1-[(trimethylsilyl)oxy]disiloxanyl]propyl-3-ylamino}-s-triazine]	354	66,460		
